Where two headings read alike, the source gives them in different places.

The subject of the assay is ALP in normal human articular chondrocytes (NHACs). Description: Alkaline Phosphatase (ALP) activity assay (staining and quantitation) in NHACs, prevention of chondrocyte hypertrophy. It counts as cell-based. As to conditions: human IL-1 beta 10 ng/mL, 12 days; for IC50: Fast Blue RR staining, high content imaging, read-out: ALP in NHAC IC50; for Emax / ALP in NHAC (% Efficacy): value in parentheses; for Emax: read-out: ALP in NHAC (% Efficacy). A digest of the protocol:
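Hypertrophy readout: ALP staining (Fast Blue RR with naphthol AS-MX phosphate) plus Hoechst, imaged at 561 nm and/or quantified by high-content multiwavelength cell scoring. Before staining, NHACs (7,500/well, DMEM/10% FBS) were exposed to compound for 5 h, then cultured with 10 ng/mL IL-1β for 12 days at 37 °C.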

For `Cc1cc(C(F)(F)F)cc(NC(=O)[C@@H]2[C@@H](c3cn(C)nc3C(F)(F)F)[C@H]3O[C@@H]2C[C@@H]3O)n1` (racemic) [Example 41, rac-(1R,2R,3S,4R,5S)-5-hydroxy-3-(1-methyl-3-(trifluoromethyl)-1H-pyrazol-4-yl)-N-(6-methyl-4-(trifluoromethyl)pyridin-2-yl)-7-oxabicyclo[2.2.1]heptane-2-carboxamide], under “Chondrocyte, 288 h”, the IC50 is 6.3 µM and the Emax was 61%.

Take `Cn1cc([C@H]2[C@H]3O[C@H](C[C@@H]3O)[C@@H]2C(=O)Nc2cccc(C(F)(F)F)c2)c(C(F)(F)F)n1` (single isomer, unassigned) [Example 32b, (1R,2R,3S,4R,5S)-5-hydroxy-3-(1-methyl-3-(trifluoromethyl)-1H-pyrazol-4-yl)-N-(3-(trifluoromethyl)phenyl)-7-oxabicyclo[2.2.1]heptane-2-carboxamide or (1S,2S,3R,4S,5R)-5-hydroxy-3-(1-methyl-3-(trifluoromethyl)-1H-pyrazol-4-yl)-N-(3-(trifluoromethyl)phenyl)-7-oxabicyclo[2.2.1]heptane-2-carboxamide]: the IC50 came to 16 µM and the “ALP in NHAC (% Efficacy)” value is reported as 109%.

As for `Cn1cc([C@H]2[C@H]3O[C@H](C[C@@H]3O)[C@@H]2C(=O)Nc2ccc(N3CCOCC3)c(C(F)(F)F)c2)c(C(F)(F)F)n1` (racemic) [Example 37, rac-(1R,2R,3S,4R,5S)-5-hydroxy-3-(1-methyl-3-(trifluoromethyl)-1H-pyrazol-4-yl)-N-(4-morpholino-3-(trifluoromethyl)phenyl)-7-oxabicyclo[2.2.1]heptane-2-carboxamide], where the note is “Chondrocyte, 288 h”, the IC50 was greater than 30 µM and the Emax is 45%.

For the compound `Cc1cc(NC(=O)[C@@H]2[C@@H](c3cccc(C(F)(F)F)c3)[C@H]3O[C@@H]2C[C@@H]3O)cnc1C(F)(F)F` (racemic) [Example 28, rac-(1R,2R,3S,4R,5S)-5-hydroxy-N-(5-methyl-6-(trifluoromethyl)pyridin-3-yl)-3-(3-(trifluoromethyl)phenyl)-7-oxabicyclo[2.2.1]heptane-2-carboxamide], where the note is “Chondrocyte, 288 h”, the IC50 stood at 6 µM and the Emax stood at 98%.

Take `Cn1cc([C@H]2[C@H]3O[C@H](C[C@@H]3O)[C@@H]2C(=O)Nc2cc(C(F)(F)F)ccn2)c(C(F)(F)F)n1` (single isomer, unassigned) [Example 38b, (1R,2R,3S,4R,5S)-5-hydroxy-3-(1-methyl-3-(trifluoromethyl)-1H-pyrazol-4-yl)-N-(4-(trifluoromethyl)pyridin-2-yl)-7-oxabicyclo[2.2.1]heptane-2-carboxamide or (1S,2S,3R,4S,5R)-5-hydroxy-3-(1-methyl-3-(trifluoromethyl)-1H-pyrazol-4-yl)-N-(4-(trifluoromethyl)pyridin-2-yl)-7-oxabicyclo[2.2.1]heptane-2-carboxamide]: the IC50 is greater than 30 µM and the “ALP in NHAC (% Efficacy)” value turned out to be 27%.

On to `Cc1ccc(NC(=O)[C@@H]2[C@@H](c3ccnc(C(F)(F)F)c3)[C@H]3O[C@@H]2C[C@@H]3O)cc1C(F)(F)F` (racemic) [Example 64, rac-(1R,2R,3S,4R,5S)-5-hydroxy-N-(4-methy-3-(trifluoromethyl)phenyl-3-(2-(trifluoromethyl)pyridin-4-yl)-7-oxabicyclo[2.2.1]heptane-2-carboxamide], for which, where the note is “Chondrocyte, 288 h”, the IC50 stood at 13 µM and the Emax is 83%.

`Cn1nc(C(F)(F)F)cc1[C@H]1[C@H]2O[C@H](C[C@@H]2O)[C@@H]1C(=O)Nc1cc(C(F)(F)F)ccc1F` (racemic) [Example 75, rac-(1R,2R,3S,4R,5S)—N-(2-fluoro-S-trifluoromethyl)phenyl)-5-hydroxy-3-(1-methyl-3-(trifluoromethyl)-1H-pyrazol-5-yl)-7-oxabicyclo[2.2.1]heptane-2-carboxamide]: under “Chondrocyte, 288 h”, the IC50 is greater than 30 µM and the Emax was determined as 46%.

For `COc1cc([C@H]2[C@H]3O[C@H](C[C@@H]3O)[C@@H]2C(=O)Nc2ccc(C(F)(F)F)cc2)ccn1` (racemic) [Example 67, rac-(1R,2R,3S,4R,5S)-5-hydroxy-3-(2-methoxypyridin-4-yl)-N-(4-(trifluoromethyl)phenyl)-7-oxabicyclo[2.2.1]heptane-2-carboxamide], for the setting “Chondrocyte, 288 h”, the half-maximal inhibitory concentration (IC50) was greater than 30 µM and the Emax was 27%.

On to `O=C(Nc1ccc(Cl)c(C(F)(F)F)c1)[C@@H]1[C@@H](c2cccc(C(F)(F)F)c2)[C@H]2O[C@@H]1C[C@@H]2O` (racemic) [Example 18, rac-(1R,2R,3S,4R,5)-N-(4-chloro-3-(trifluoromethyl)phenyl)-5-hydroxy-3-(3-(trifluoromethyl)phenyl)-7-oxabicyclo[2.2.1]heptane-2-carboxamide], for which, under “Chondrocyte, 288 h”, the IC50 stood at 8 µM and the Emax is 102%.

Regarding `N#Cc1ccc(C(F)(F)F)cc1NC(=O)[C@@H]1[C@@H](c2cccc(C(F)(F)F)c2)[C@H]2O[C@@H]1C[C@@H]2O` (single isomer, unassigned) [Example 48a, (1R,2R,3S,4R,5S)—N-(2-cyano-5-(trifluoromethyl)phenyl)-5-hydroxy-3-(3-(trifluoromethyl)phenyl)-7-oxabicyclo[2.2.1]heptane-2-carboxamide or (1S,2S,3R,4S,5R)—N-(2-cyano-5-(trifluoromethyl)phenyl)-5-hydroxy-3-(3-(trifluoromethyl)phenyl)-7-oxabicyclo[2.2.1]heptane-2-carboxamide], the IC50 is 1.5 µM and the “ALP in NHAC (% Efficacy)” value is given as 109%.

For the compound `COc1cc([C@H]2[C@H]3O[C@H](C[C@@H]3O)[C@@H]2C(=O)Nc2cc(C(F)(F)F)ccn2)ccn1` (racemic) [Example 77, rac-(1R,2R,3S,4R,5)-5-hydroxy-3-(2-methoxypyridin-4-yl)-N-(4-(trifluoromethyl)pyridin-2-yl)-7-oxabicyclo[2.2.1]heptane-2-carboxamide], for the setting “Chondrocyte, 288 h”, the IC50 worked out at 15 µM and the Emax was found to be 76%.

As for `COc1cc([C@H]2[C@H]3O[C@H](C[C@@H]3O)[C@@H]2C(=O)Nc2ccc(C(F)(F)F)c(Cl)c2)ccn1` (racemic) [Example 79, rac-(1R,2R,3S,4R,5S)—N-(3-chloro-4-trifluoromethyl)phenyl)-5-hydroxy-3-(2-methoxypyridin-4-yl)-7-oxabicyclo[2.2.1]heptane-2-carboxamide], under “Chondrocyte, 288 h”, the IC50 worked out at 12 µM and the Emax amounted to 75%.

Turning to `Cn1cc([C@H]2[C@H]3O[C@H](C[C@@H]3O)[C@@H]2C(=O)Nc2ccc(C(F)(F)F)cc2)c(C(F)(F)F)n1` (racemic) [Example 29, rac-(1R,2R,3S,4R,5S)-5-hydroxy-3-(1-methyl-3-trifluoromethyl)-1H-pyrazol-4-yl)-N-(4-(trifluoromethyl)phenyl)-7-oxabicyclo[2.2.1]heptane-2-carboxamide], where the note is “Chondrocyte, 288 h”, the IC50 came to 11 µM and the Emax worked out at 72%.

Turning to `N#Cc1ccc(C(F)(F)F)cc1NC(=O)[C@@H]1[C@@H](c2cccc(C(F)(F)F)c2)[C@H]2O[C@@H]1C[C@@H]2O` (single isomer, unassigned) [Example 48b, (1R,2R,3S,4R,5S)—N-(2-cyano-5-(trifluoromethyl)phenyl)-5-hydroxy-3-(3-(trifluoromethyl)phenyl)-7-oxabicyclo[2.2.1]heptane-2-carboxamide or (1S,2S,3R,4S,5R)—N-(2-cyano-5-(trifluoromethyl)phenyl)-5-hydroxy-3-(3-(trifluoromethyl)phenyl)-7-oxabicyclo[2.2.1]heptane-2-carboxamide], the IC50 was found to be 1.9 µM and the “ALP in NHAC (% Efficacy)” value is on record as 98%.

In the case of `Cn1cc([C@H]2[C@H]3O[C@H](C[C@@H]3O)[C@@H]2C(=O)Nc2cc(C(F)(F)F)cc(C3CC3)n2)c(C(F)(F)F)n1` (racemic) [Example 40, rac-(1R,2R,3S,4R,5S)—N-(6-cyclopropyl-4-(trifluoromethyl)pyridin-2-yl)-5-hydroxy-3-(1-methyl-3-(trifluoromethyl)-1H-pyrazol-4-yl)-7-oxabicyclo[2.2.1]heptane-2-carboxamide], where the note is “Chondrocyte, 288 h”, the IC50 stood at 10 µM and the Emax amounted to 83%.

For the compound `Cc1cc(NC(=O)[C@@H]2[C@@H](c3cn(C)nc3C(F)(F)F)[C@H]3O[C@@H]2C[C@@H]3O)cc(C(F)(F)F)c1` (racemic) [Example 30, rac-(1R,2R,3S,4R,5)-5-hydroxy-3-(1-methyl-3-(trifluoromethyl)-1H-pyrazol-4-yl)-N-(3-methyl-5-(trifluoromethyl)phenyl)-7-oxabicyclo[2.2.1]heptane-2-carboxamide], under “Chondrocyte, 288 h”, the IC50 stood at 7.2 µM and the Emax is 81%.

For `COc1ccc(C(F)(F)F)cc1NC(=O)[C@H]1[C@H](c2cn(C)nc2C(F)(F)F)[C@@H]2O[C@H]1C[C@H]2O` (single isomer, unassigned) [Example 33a, (1R,2R,3S,4R,5S)-5-hydroxy-N-(2-methoxy-5-trifluoromethyl)phenyl)-3-(1-methyl-3-(trifluoromethyl)-1H-pyrazol-4-L)-7-oxabicyclo[2.2.1]heptane-2-carboxamide or (1S,2S,3R,4S,5R)-5-hydroxy-N-(2-methoxy-5-(trifluoromethyl)phenyl)-3-(1-methyl-3-(trifluoromethyl)-1H-pyrazol-4-L)-7-oxabicyclo[2.2.1]heptane-2-carboxamide], the IC50 worked out at 6.6 µM and the “ALP in NHAC (% Efficacy)” value came out at 79%.

As to `COc1ccc(C(F)(F)F)cc1NC(=O)[C@@H]1[C@@H](c2cn(C)nc2C(F)(F)F)[C@H]2O[C@@H]1C[C@@H]2O` (racemic) [Example 33, rac-(1R,2R,3S,4R,5)-5-hydroxy-N-(2-methoxy-5-(trifluoromethyl)phenyl)-3-(1-methyl-3-(trifluoromethyl)-1H-pyrazol-4-yl)-7-oxabicyclo[2.2.1]heptane-2-carboxamide], for the setting “Chondrocyte, 288 h”, the IC50 was 2.8 µM and the Emax was 74%.

As usually defined, the IC50 is the midpoint of a concentration-inhibition curve.

The values above are taken from patent US12257243B2, “5-hydroxy-7-oxabicyclo[2.2.1]heptane-2-carboxamide derivatives for inducing chondrogenesis for treating joint damage” (NOVARTIS AG, priority 2018, dated 2025).
